Measurements from patent publication US20100168197A1, “MUSCARINIC RECEPTOR ANTAGONISTS” (priority 2007, published 2010).

System: Guinea Pig trachea
Experiment: In-vitro functional assay, carbachol-contracted isolated trachea
Settings: Cavia porcellus; isolated tissue, 1 μM carbachol contraction; range stated for the group of tested compounds
Protocol: The contractile results are expressed as % of control E max. ED50 values are calculated by fitting a non-linear regression curve (Graph Pad Prism). pKb values are calculated by the formula pKb=−log [(molar concentration of antagonist/(dose ratio−1))]
where, dose ratio=ED50 in the presence of antagonist/ED50 in the absence of antagonist.
The Guinea Pig (400-600 gm) was procured and trachea was removed under anesthesia (sodium pentobarbital, 300 mg/kg i.p) and was immediately kept it in ice-cold Krebs Henseleit buffer. Indomethacin (10 μM) was present throughout the KH buffer to prevent the formation of bronchoactive prostanoids.
The tissue of adherent fascia was cleaned and was cut into strips of equal size (with approximately 4-5 tracheal rings in each strip). The epithelium was removed by careful rubbing, minimizing damage to the smooth muscle. […] Opposite ends of the cut rings were tied with the help of a thread. The tissue was mounted in isolated tissue baths containing 10 ml Krebs Henseleit buffer maintained at 37° C. and bubbled with carbogen, at a basal tension of 1 gm. The buffer was changed 4-5 times for about an hour. The tissue was equilibrated for 1 hour for stabilization. After 1 hour, the tissue was challenged with 1 μM carbachol. This was repeated after every 2-3 washes till two similar consecutive responses were obtained. At the end of stabilization, the tissue was washed for 30 minutes followed by incubation with suboptimal dose of MRA/Vehicle for 20 minutes prior to contraction of the tissues with 1 μM carbachol. The contractile response of tissues was recorded either on Powerlab data acquisition system or on Grass polygraph (Model 7). The relaxation was expressed as percentage of maximum carbachol response. The data was expressed as mean±s.e. mean for n observations. The EC50 was calculated as the concentration producing 50% of the maximum relaxation to 1 μM carbachol. The percent relaxation was compared between the treated and control tissues using non-parametric unpaired t-test. A p value of <0.05 was considered to be statistically significant.

SMILES: Cc1n(CCOC(=O)[C@](O)(c2ccccc2)[C@@H]2CCC(F)(F)C2)cc[n+]1Cc1ccccc1 [Compound No. 17, 3-Benzyl-1-[2-({(2R)-2-[(1R)-3,3-difluorocyclopentyl]-2-hydroxy-2-phenylacetyl}oxy)ethyl]-2-methyl-1H-imidazol-3-ium chloride]
- Kb: 0.1 to 3.16 nM

SMILES: Cc1n(CCCOC(=O)[C@](O)(c2ccccc2)[C@@H]2CCC(F)(F)C2)cc[n+]1CC1CC1 [Compound No. 22, 3-(Cyclopropylmethyl)-1-[3-({(2R)-2-[(1R)-3,3-difluorocyclopentyl]-2-hydroxy-2-phenylacetyl}oxy)propyl]-2-methyl-1H-imidazol-3-ium bromide]
- Kb: 0.1 to 3.16 nM

SMILES: Cc1n(CCCOC(=O)[C@](O)(c2ccccc2)[C@@H]2CCC(F)(F)C2)cc[n+]1CCc1ccccc1 [Compound No. 29, 1-[3-({(2R)-2-[(1R)-3,3-Difluorocyclopentyl]-2-hydroxy-2-phenylacetyl}oxy)propyl]-2-methyl-3-(2-phenylethyl)-1H-imidazol-3-ium bromide]
- Kb: 0.1 to 3.16 nM

SMILES: CCCC[n+]1ccn(CCCOC(=O)C(O)(c2cccs2)c2cccs2)c1C [Compound No. 95, 3-Butyl-1-{3-[2-hydroxy(di-2-thienyl)acetoxy]propyl}-2-methyl-1H-imidazol-3-ium bromide]
- Kb: 0.1 to 3.16 nM

SMILES: Cc1n(CCCOC(=O)[C@](O)(c2ccccc2)[C@@H]2CCCC(F)(F)C2)cc[n+]1Cc1ccc(Br)cc1 [Compound No. 9, 3-(4-Bromobenzyl)-1-[3-({(2R)-2-[(1R)-3,3-difluorocyclohexyl]-2-hydroxy-2-phenylacetyl}oxy)propyl]-2-methyl-1H-imidazol-3-ium bromide]
- Kb: 0.1 to 3.16 nM

SMILES: Cc1n(CCCOC(=O)[C@](O)(c2ccccc2)[C@@H]2CCC(F)(F)C2)cc[n+]1Cc1ccc(F)cc1 [Compound No. 13, 1-[3-({(2R)-2-[(1R)-3,3-Difluorocyclopentyl]-2-hydroxy-2-phenylacetyl}oxy)propyl]-3-(4-fluorobenzyl)-2-methyl-1H-imidazol-3-ium bromide]
- Kb: 0.1 to 3.16 nM

SMILES: Cc1n(CCCOC(=O)[C@](O)(c2ccccc2)[C@@H]2CCC(F)(F)C2)cc[n+]1Cc1ccccc1 [Compound No. 28, 3-Benzyl-1-[3-({(2R)-2-[(1R)-3,3-difluorocyclopentyl]-2-hydroxy-2-phenylacetyl}oxy)propyl]-2-methyl-1H-imidazol-3-ium chloride]
- Kb: 0.1 to 3.16 nM

SMILES: Cc1n(CCOC(=O)[C@](O)(c2ccccc2)[C@@H]2CCC(F)(F)C2)cc[n+]1CC1CC1 [Compound No. 85, 3-(Cyclopropylmethyl)-1-[2-({(2R)-2-[(1R)-3,3-difluorocyclopentyl]-2-hydroxy-2-phenylacetyl}oxy)ethyl]-2-methyl-1H-imidazol-3-ium bromide]
- Kb: 0.1 to 3.16 nM

SMILES: Cc1n(CCCOC(=O)[C@](O)(c2ccccc2)[C@@H]2CCC(F)(F)C2)cc[n+]1C [Compound No. 30, 1-[3-({(2R)-2-[(1R)-3,3-Difluorocyclopentyl]-2-hydroxy-2-phenylacetyl}oxy)propyl]-2,3-dimethyl-1H-imidazol-3-ium bromide]
- Kb: 0.1 to 3.16 nM

SMILES: Cc1n(CCCOC(=O)[C@](O)(c2ccccc2)[C@@H]2CCC(F)(F)C2)cc[n+]1CC1CCCCC1 [Compound No. 23, 3-(Cyclohexylmethyl)-1-[3-({(2R)-2-[(1R)-3,3-difluorocyclopentyl]-2-hydroxy-2-phenylacetyl}oxy)propyl]-2-methyl-1H-imidazol-3-ium bromide]
- Kb: 0.1 to 3.16 nM

SMILES: Cc1n(CCCOC(=O)[C@](O)(c2ccccc2)[C@@H]2CCCC(F)(F)C2)cc[n+]1Cc1ccccc1 [Compound No. 37, 3-Benzyl-1-[3-({(2R)-2-[(1R)-3,3-difluorocyclohexyl]-2-hydroxy-2-phenylacetyl}oxy)propyl]-2-methyl-1H-imidazol-3-ium chloride]
- Kb: 0.1 to 3.16 nM

SMILES: CCCC[n+]1ccn(CCCOC(=O)[C@](O)(c2ccccc2)[C@@H]2CCC(F)(F)C2)c1C [Compound No. 51, 3-Butyl-1-[3-({(2R)-2-[(1R)-3,3-difluorocyclopentyl]-2-hydroxy-2-phenylacetyl}oxy)propyl]-2-methyl-1H-imidazol-3-ium bromide]
- Kb: 0.1 to 3.16 nM

SMILES: Cc1n(CCCOC(=O)[C@](O)(c2ccccc2)[C@@H]2CCCC(F)(F)C2)cc[n+]1Cc1ccc(F)cc1 [Compound No. 31, 1-[3-({(2R)-2-[(1R)-3,3-Difluorocyclohexyl]-2-hydroxy-2-phenylacetyl}oxy)propyl]-3-(4-fluorobenzyl)-2-methyl-1H-imidazol-3-ium bromide]
- Kb: 0.1 to 3.16 nM

SMILES: CC[n+]1ccn(CCCOC(=O)[C@](O)(c2ccccc2)[C@@H]2CCC(F)(F)C2)c1C [Compound No. 21, 1-[3-({(2R)-2-[(1R)-3,3-Difluorocyclopentyl]-2-hydroxy-2-phenylacetyl}oxy)propyl]-3-ethyl-2-methyl-1H-imidazol-3-ium iodide]
- Kb: 0.1 to 3.16 nM

SMILES: Cc1n(CCOC(=O)[C@](O)(c2ccccc2)[C@@H]2CCC(F)(F)C2)cc[n+]1C [Compound No. 19, 1-[2-({(2R)-2-[(1R)-3,3-Difluorocyclopentyl]-2-hydroxy-2-phenylacetyl}oxy)ethyl]-2,3-dimethyl-1H-imidazol-3-ium bromide]
- Kb: 0.1 to 3.16 nM

SMILES: Cc1n(CCCOC(=O)[C@](O)(c2ccccc2)[C@@H]2CCCC(F)(F)C2)cc[n+]1C [Compound No. 5, 1-[3-({(2R)-2-[(1R)-3,3-Difluorocyclohexyl]-2-hydroxy-2-phenylacetyl}oxy)propyl]-2,3-dimethyl-1H-imidazol-3-ium iodide]
- Kb: 0.1 to 3.16 nM

SMILES: Cc1n(CCCOC(=O)C(O)(c2ccccc2)C2CCCCCC2)cc[n+]1C (centres unmarked) [Compound No. 6, 1-(3-{[Cycloheptyl(hydroxy)phenylacetyl]oxy}propyl)-2,3-dimethyl-1H-imidazol-3-ium iodide]
- Kb: 0.1 to 3.16 nM
